Experimental findings from ChEMBL document CHEMBL3045197, “Design and synthesis of new 2-aryl, 3-benzyl-(1,3-oxazolidine or 1,3-thiazolidine)-4-ones as selective cyclooxygenase (COX-2) inhibitors” (Med Chem Res, 2010) are described below.

The structures appear in SMILES notation.

The species named for one experiment is Ovis aries. The experiment in a line: Selectivity index, ratio of IC50 for Ovis aries (sheep) COX-1 to IC50 for Ovis aries (sheep) COX-2.
Experiment [1] addresses Prostaglandin G/H synthase 1 (Ovis aries) (UniProt P05979). The experiment can be described thus: Inhibition of Ovis aries (sheep) COX-1 by Chemoiluminescence assay.
Experiment [2] concerns the target Prostaglandin G/H synthase 2 (Ovis aries) (UniProt P79208). The experiment in a line: Inhibition of Ovis aries (sheep) COX-2 by Chemoiluminescence assay.

Prostaglandin G/H synthase 2 (Ovis aries), sequence (P79208 whole entry, looked up): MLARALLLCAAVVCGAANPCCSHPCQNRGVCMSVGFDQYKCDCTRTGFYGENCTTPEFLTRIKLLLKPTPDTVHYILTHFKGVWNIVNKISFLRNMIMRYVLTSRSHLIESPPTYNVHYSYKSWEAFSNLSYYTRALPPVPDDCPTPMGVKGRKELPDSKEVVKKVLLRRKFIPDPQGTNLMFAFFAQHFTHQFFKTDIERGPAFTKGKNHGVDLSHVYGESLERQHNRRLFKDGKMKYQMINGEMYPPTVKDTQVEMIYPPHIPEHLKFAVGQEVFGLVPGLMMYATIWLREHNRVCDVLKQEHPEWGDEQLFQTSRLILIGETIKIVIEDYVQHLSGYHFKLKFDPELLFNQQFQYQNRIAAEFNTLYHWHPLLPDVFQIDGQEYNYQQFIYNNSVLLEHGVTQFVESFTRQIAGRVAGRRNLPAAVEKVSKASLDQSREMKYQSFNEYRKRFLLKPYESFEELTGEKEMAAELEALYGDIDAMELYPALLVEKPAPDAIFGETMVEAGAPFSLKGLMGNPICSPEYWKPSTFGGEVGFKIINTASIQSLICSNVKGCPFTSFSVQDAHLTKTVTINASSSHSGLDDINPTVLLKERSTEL

The IC50 is the midpoint of a concentration-inhibition curve. High values mean weaker potency in that assay, low ones greater potency in that assay. Turning to `CS(=O)(=O)c1ccc(C2SCC(=O)N2Cc2ccccc2)cc1` (configuration not stated), the Ratio IC50 in the experiment listed under Ovis aries was greater than 312. Moreover, the results for the IC50 in experiment [1] and in experiment [2] were greater than 100 µM and 320 nM, respectively.

As for `CS(=O)(=O)c1ccc(C2OCC(=O)N2Cc2ccccc2)cc1` (configuration not stated), the Ratio IC50 in the experiment filed under Ovis aries was greater than 476. Further, the concentration for half-maximal inhibition (IC50) is greater than 100 µM in experiment [1] and 210 nM in experiment [2].

With `CC1SC(c2ccc(S(C)(=O)=O)cc2)N(Cc2ccccc2)C1=O` (racemic), in the experiment listed under Ovis aries, the Ratio IC50 worked out at 222. For the same compound, the concentration for half-maximal inhibition (IC50) is 75.6 µM in experiment [1] and 340 nM in experiment [2].

For `CC1OC(c2ccc(S(C)(=O)=O)cc2)N(Cc2ccccc2)C1=O` (racemic), the Ratio IC50 in the experiment filed under Ovis aries is 318. For the same compound, the half-maximal inhibitory concentration (IC50) in experiment [1] was 85.9 µM; in experiment [2], 270 nM.
